Target: T1, human capsaicin receptor (VR1) (Homo sapiens, UniProt Q8NER1)
T1 construct: transfected with the pBK-CMV expression construct encoding the full length human capsaicin receptor; expressed in transfected cells
Assay: Capsaicin receptor binding assay ([3H]RTX competition)
Details: read-out: Ki
From the text: This Example illustrates the preparation of VR1-transfected cells and membrane preparations for use in binding assays (Example 5) and functional assays (Example 6).
A cDNA encoding full length human capsaicin receptor (SEQ ID NO: 1, 2 or 3 of U.S. Pat. No. 6,482,611) was subcloned in the plasmid pBK-CMV (Stratagene, La Jolla, Calif.) for recombinant expression in mammalian cells.
Human embryonic kidney (HEK293) cells were transfected with the pBK-CMV expression construct encoding the full length human capsaicin receptor using standard methods. The transfected cells were selected for two weeks in media containing G418 ([…]) to obtain a pool of stably transfected cells. Independent clones were isolated from this pool by limiting dilution to obtain clonal stable cell lines for use in subsequent experiments.
For radioligand binding experiments, cells were seeded in T175 cell culture flasks in media without antibiotics and grown to approximately 90% confluency. The flasks were then washed with PBS and harvested in PBS containing 5 mM EDTA. The cells were pelleted by gentle centrifugation and stored at −80° C. until assayed.
Previously frozen cells were disrupted with the aid of a tissue homogenizer in ice-cold HEPES homogenization buffer (5mM KCl 5, 5.8 mM NaCl, 0.75 mM CaCl2, 2 mM MgCl2, 320 mM sucrose, and 10 mM HEPES pH 7.4). Tissue homogenates were first centrifuged for 10 minutes at 1000×g (4° C.) to remove the nuclear fraction and debris, and then the supernatant from the first centrifugation is further centrifuged for 30 minutes at 35,000×g (4° C.) to obtain a partially purified membrane fraction. Membranes were resuspended in the HEPES homogenization buffer prior to the assay. An aliquot of this membrane homogenate is used to determine protein concentration via the Bradford method (BIO-RAD Protein Assay Kit, #500-0001, BIO-RAD, Hercules, Calif.).
This Example illustrates a representative assay of capsaicin receptor binding that may be used to determine the binding affinity of compounds for the capsaicin (VR1) receptor.
Binding studies with [^3H] Resiniferatoxin (RTX) are carried out essentially as described by Szallasi and Blumberg (1992) J. Pharmacol. Exp. Ter. 262: 883-888. In this protocol, non-specific RTX binding is reduced by adding bovine alpha, acid glycoprotein (100 μg per tube) after the binding reaction has been terminated.
[^3H] RTX (37 Ci/mmol) is synthesized by and obtained from the Chemical Synthesis and Analysis Laboratory, National Cancer Institute-Frederick Cancer Research and Development Center, Frederick, Md. [^3H] RTX may also be obtained from commercial vendors (e.g., Amersham Pharmacia Biotech, Inc.; Piscataway, N.J.).
The membrane homogenate of Example 4 is centrifuged as before and resuspended to a protein concentration of 333 μg/ml in homogenization buffer. Binding assay mixtures are set up on ice and contain [^3H]JRTX (specific activity 2200 mCi/ml), 2 μl non-radioactive test compound, 0.25 mg/ml bovine serum albumin (Cohn fraction V), and 5×10^4−1×10^5 VR1-transfected cells. The final volume is adjusted to 500 μl (for competition binding assays) or 1,000 μl (for saturation binding assays) with the ice-cold HEPES homogenization buffer solution (pH 7.4) described above. Non-specific binding is defined as that occurring in the presence of 1 μM non-radioactive RTX (Alexis Corp.; San Diego, Calif.). For saturation binding, [^3H]RTX is added in the concentration range of […], using 1 to 2 dilutions. Typically 11 concentration points are collected per saturation binding curve.
Competition binding assays are performed in the presence of 60 pM [^3H]RTX and various concentrations of test compound. The binding reactions are initiated by transferring the assay mixtures into a 37° C. water bath and are terminated following a 60 minute incubation period by cooling the tubes on ice.

T1 sequence (Q8NER1 whole entry): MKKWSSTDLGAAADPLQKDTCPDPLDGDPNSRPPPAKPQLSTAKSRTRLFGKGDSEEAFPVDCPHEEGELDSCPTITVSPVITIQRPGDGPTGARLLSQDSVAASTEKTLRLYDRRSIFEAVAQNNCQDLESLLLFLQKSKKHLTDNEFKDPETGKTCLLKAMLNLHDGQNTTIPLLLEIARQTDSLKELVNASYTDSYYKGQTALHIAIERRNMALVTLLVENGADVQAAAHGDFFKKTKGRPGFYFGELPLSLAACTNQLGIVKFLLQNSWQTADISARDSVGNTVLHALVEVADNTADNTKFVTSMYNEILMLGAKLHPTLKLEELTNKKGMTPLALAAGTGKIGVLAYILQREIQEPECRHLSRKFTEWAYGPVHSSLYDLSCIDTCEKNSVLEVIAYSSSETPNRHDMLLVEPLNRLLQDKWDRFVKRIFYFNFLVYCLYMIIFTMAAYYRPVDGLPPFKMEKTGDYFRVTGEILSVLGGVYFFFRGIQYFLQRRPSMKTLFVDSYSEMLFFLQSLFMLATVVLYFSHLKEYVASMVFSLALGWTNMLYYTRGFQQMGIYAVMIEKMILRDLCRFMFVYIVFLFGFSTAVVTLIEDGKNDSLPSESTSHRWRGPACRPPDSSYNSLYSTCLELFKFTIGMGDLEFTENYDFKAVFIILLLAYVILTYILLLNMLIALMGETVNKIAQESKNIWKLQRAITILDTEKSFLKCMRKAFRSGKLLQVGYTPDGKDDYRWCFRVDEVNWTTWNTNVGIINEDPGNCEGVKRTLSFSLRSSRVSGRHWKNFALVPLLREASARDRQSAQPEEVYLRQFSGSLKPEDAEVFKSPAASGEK

| Compound | Ki [nM] |
| --- | --- |
| Cc1ccc(NC(=O)c2ccc(-c3cccc(C(C)C)c3)nc2)cc1F [Compound 267, N-(3-Fluoro-4-methyl-phenyl)-6-(3-isopropyl-phenyl)-nicotinamide] | < 1000 |
| CCOc1cccc(-c2ccc(C(=O)Nc3ccc(C)c(C)c3)cn2)c1 [Compound 238, N-(3,4-Dimethyl-phenyl)-6-(3-ethoxyl-phenyl)-nicotinamide] | < 1000 |
| CC(C)(C)c1cccc(NC(=O)c2ccc(-c3cccc(F)c3)nc2)c1 [Compound 296, N-(3-tert-Butyl-phenyl)-6-(3-fluoro-phenyl)-nicotinamide] | < 1000 |
| CC(C)(C)c1ccc(NC(=O)c2ccc(-c3ncccc3-c3nnco3)cc2)cc1 [Compound 401, N-(4-tert-Butyl-phenyl)-4-(3-[1,3,4]oxadiazol-2-yl-pyridin-2-yl)-benzamide] | < 1000 |
| CC(C)c1cccc(-c2ccc(C(=O)Nc3ccc4c(c3)CCC4)cn2)c1 [Compound 462, N-Indan-5-yl-6-(3-isopropyl-phenyl)-nicotinainide] | < 1000 |
| CC(C)(C)c1ccc(NC(=O)c2ccc(-c3ccccc3N(S(C)(=O)=O)S(C)(=O)=O)nc2)cc1 [Compound 451, N-(4-tert-Butyl-phenyl)-6-[2-(N,N-dimethanesulfonyl)amino-phenyl]-nicotinamide] | < 1000 |
| CC(C)(C)c1ccc(NC(=O)c2ccc(-c3ccc(F)cc3F)nc2)cc1 [Compound 437, N-(4-tert-Butyl-phenyl)-6-(2,4-difluoro-phenyl)-nicotinamide] | < 1000 |
| CCOc1cccc(-c2ccc(C(=O)Nc3ccc(C)c(F)c3)cn2)c1 [Compound 120, 6-(3-Ethoxyphenyl)-N-(3-fluoro-4-methyl-phenyl)-nicotinamide] | < 1000 |
| CC(C)(C)c1ccc(NC(=O)c2cnc(-c3ccccc3Cl)cn2)cc1 [Compound 39, 5-(2-Chloro-phenyl)-pyrazine-2-carboxylic acid (4-tert-butyl-phenyl)-amide] | < 1000 |
| O=C(Nc1ccc(C2CCCC2)cc1)c1ccc(-c2ncccc2F)cc1 [Compound 363, N-(4-Cyclopenyl-phenyl)-4-(3-fluoro-pyridin-2-yl)-benzamide] | < 1000 |
| CC(C)(C)c1ccc(NC(=O)c2ccc(-c3ccncc3)nc2)cc1 [Compound 11, [2,4′]Bipyridinyl-5-carboxylic acid (4-tert-butyl-phenyl)-amide] | < 1000 |
| CC(C)(C)c1ccc(NC(=O)c2cnc(-c3ccccc3)c(Cl)c2)cc1 [Compound 436, N-(4-tert-Butyl-phenyl)-5-chloro-6-phenyl-nicotinamide] | < 1000 |
| O=C(Nc1cccc(C(F)(F)F)c1)c1ccc(-c2ccccc2F)nc1 [Compound 88, 6-(2-Fluoro-phenyl)-N-(3-trifluoromethyl-phenyl)-nicotinamide] | < 1000 |
| CC(C)c1cccc(-c2ccc(C(=O)Nc3ccc4c(c3)OCCO4)cn2)c1 [Compound 196, N-(2,3-Dihydro-benzo[1,4]dioxin-6-yl)-6-(3-isopropyl-phenyl)-nicotinamide] | < 1000 |
| CC(C)(C)c1ccc(NC(=O)c2ccc(-c3ncccc3NS(C)(=O)=O)cc2)cc1 [Compound 413, N-(4-tert-Butyl-phenyl)-4-(3-methanesulfonylamino-pyridin-2-yl)-benzamide] | < 1000 |
| CC(C)(C)c1ccc(NC(=O)c2cnc(-c3ccccc3Cl)c(Cl)c2)cc1 [Compound 435, N-(4-tert-Butyl-phenyl)-5-chloro-6-(2-chloro-phenyl)-nicotinamide] | < 1000 |
| CC(C)(C)c1ccc(NC(=O)c2ccc(-c3ncccc3NS(=O)(=O)c3ccc(F)cc3)cc2)cc1 [Compound 423, N-(4-tert-Butyl-phenyl)-4-[3-(4-fluoro-benzenesulfonylamino)-pyridin-2-yl]-benzamide] | < 1000 |

| Compound | Ki [nM] |
| --- | --- |
| CC(C)(C)c1ccc(NC(=O)c2cnc(-c3ccccc3Cl)cc2O)cc1 [Compound 441, N-(4-tert-Butyl-phenyl)-6-(2-chloro-phenyl)-4-hydroxy-nicotinamide] | < 1000 |
| O=C(Nc1ccc2c(c1)CCC2)c1ccc(-c2ccccc2)nc1 [Compound 471, N-Indan-5-yl-6-phenyl-nicotinamide] | < 1000 |
| Cc1nc(-c2ncccc2C(F)(F)F)ccc1C(=O)Nc1ccc(C(F)(F)F)cc1 [Compound 181, 6-Methyl-3′-trifluoromethyl-[2,2′]bipyridinyl-5-carboxylic acid (4-trifluoromethyl-phenyl)-amide] | < 1000 |
| CC(=O)c1ccccc1-c1ccc(C(=O)Nc2ccc(C(C)(C)C)cc2)cn1 [Compound 60, 6-(2-Acetyl-phenyl)-N-(4-tert-butyl-phenyl)-nicotinamide] | < 1000 |
| CS(=O)(=O)Nc1cc(-c2ncccc2C(F)(F)F)ccc1C(=O)Nc1ccc(C(F)(F)F)cc1 [Compound 17, 2-Methanesulfonylamino-N-(4-trifluoromethyl-phenyl)-4-(3-trifluoromethyl-pyridin-2-yl)-benzamide] | < 1000 |
| COc1ccc(NC(=O)c2ccc(-c3ccccc3F)nc2)cc1OC [Compound 232, N-(3,4-Dimethoxy-phenyl)-6-(2-fluoro-phenyl)-nicotinamide] | < 1000 |
| CC(C)(C#N)c1ccc(NC(=O)c2ccc(-c3ncccc3Cl)cc2)cc1 [Compound 32, 4-(3-Chloro-pyridin-2-yl)-N-[4-(cyano-dimethyl-methyl)-phenyl]-benzamide] | < 1000 |
| CC(C)(C)c1ccc(NC(=O)c2ccc(-c3ncc(Cl)cc3Cl)cc2)cc1 [Compound 400, N-(4-tert-Butyl-phenyl)-4-(3,5-dichloro-pyridin-2-yl)-benzamide] | < 1000 |
| O=C(Nc1ccc(C(F)(F)F)cc1)c1ccc(-c2ccccc2Cl)nc1 [Compound 78, 6-(2-Chloro-phenyl)-N-(4-trifluoromethyl-phenyl)-nicotinamide] | < 1000 |
| COc1cccc(NC(=O)c2ccc(-c3cccc(C(C)C)c3)nc2)c1 [Compound 131, 6-(3-Isopropyl-phenyl)-N-(3-methoxy-phenyl)-nicotinamide] | < 1000 |
| COc1cccc(-c2ccc(C(=O)Nc3ccc(C)c(C)c3)cn2)c1 [Compound 241, N-(3,4-Dimethyl-phenyl)-6-(3-methoxy-phenyl)-nicotinamide] | < 1000 |
| CCCc1ccc(NC(=O)c2ccc(-c3ccccc3Cl)nc2)cc1 [Compound 77, 6-(2-Chloro-phenyl)-N-(4-propyl-phenyl)-nicotinamide] | < 1000 |
| CC(C)(C)c1ccc(NC(=O)c2ccc(-c3c(F)cccc3F)nc2)cc1 [Compound 438, N-(4-tert-Butyl-phenyl)-6-(2,6-difluoro-phenyl)-nicotinamide] | < 1000 |
| O=C(Nc1ccccc1C(F)(F)F)c1ccc(-c2ccccc2Cl)nc1 [Compound 64, 6-(2-Chloro-phenyl)-N-(2-trifluoromethyl-phenyl)-nicotinamide] | < 1000 |
| COc1cccc(NC(=O)c2ccc(-c3cccc(OC(F)(F)F)c3)nc2)c1 [Compound 278] | < 1000 |
| O=C(Nc1ccc(C(F)(F)F)cc1)c1ccc(-c2cccc(OC(F)(F)F)c2)nc1 [Compound 135, N-(4-Trifluoromethyl-phenyl)-6-(3-Trifluoromethoxy-phenyl)-nicotinamide] | < 1000 |
| CC(C)(C)c1ccc(NC(=O)c2ccc(-c3ccccc3F)nc2)cc1 [Compound 443, N-(4-tert-Butyl-phenyl)-6-(2-fluoro-phenyl)-nicotinamide] | < 1000 |

From patent US20060100245A1, “Substituted biphenyl-4-carboxylic acid arylamide analogues” (Neurogen Corporation, priority 2002, published 2006)
